# From patent US12474342B2, “Methods for treating cancer and the use of biomarkers as a predictor of clinical sensitivity to therapies” (CELGENE CORPORATION, priority 2016, dated 2025)
# Read-outs that look alike come from different tables or passages of the source.
# How the values were obtained:
# ATF3 = ATF3 mRNA, quantitative PCR, KG-1; assay type: cell-based, human; details: KG-1, 100 nM Compound D or greater
# Experimental: Compound D regulates UPR stress RNAs, ATF3 and CHOP, and nonsense-mediated decay (NMD) RNAs, SRSF3 and SRSF6, in KG-1 cells in both dose- and time-dependent manners. KG-1 cells were plated in 10 cm^2 dishes and incubated overnight. The following day, KG-1 cells were treated with a 6-point dose response (0, 3, 10, 30, 100, 300 nM) of Compound D and incubated for 2, 4, 8, and 20 hours. Cells were removed from dishes and cell pellets were prepared for RNA isolation (Qiagen RNA isolation kit). Total RNA was quantitated using NanoDrop spectrophotometer and cDNA was reversely transcribed using 1 μg total RNA. Quantitative PCR was performed in replicates for each sample using primer sets for ATF3, CHOP, and both NMD and normal transcripts of SRSF3 and SRSF6. Data was doubly normalized to the 18S housekeeping gene and 2 hour DMSO control. Normalized RNA expression (y-axis) versus drug concentration in nM (x-axis) for each time point was plotted. SRSF3-1 NMD and SRSF6-1 NMD depict amplification of NMD transcript for SRSF3 and SRSF6, respectively. SRSF3-3 Normal and SRSF6-3 Normal depict amplification of normal transcript for SRSF3 and SRSF6 genes, respectively. […] FIGS. 29A-29F show effects of Compound D treatment on UPR and NMD pathways in KG-1 cells. […] Additionally, 100 nM Compound D or greater induced the mRNA levels of ATF3 and DDIT3 (CHOP) approximately 100-fold and 10-fold, respectively. […]
# XBP1 = XBP1 assay in U937 cells; assay type: cell-based, human; details: 0.5 μM TG for 6 hours or 4 μM Compound D for 8, 16, or 32 hours
# Experimental: IRE1, a kinase that activates the XBP1 pathway, was knocked out in U937 cells by CRISPR-mediated gene editing using IRE1 CRISPR constructs. Wild type U937 cells or IRE1 CRISPR knockout U937 cells were treated with 0.5 μM TG for 6 hours or 4 μM Compound D for 8, 16, or 32 hours, then subject to XBP1 assay.
# GSPT1 [1] = target: T1, GSPT1 (Homo sapiens, UniProt P15170+Q96SW2); experiment: GSPT1 protein reduction, western analysis, KG-1; assay type: cell-based; set-up: reduction in GSPT1 protein level was evaluated in human normal PBMCs; endogenous in cells; host or cells: primary PBMCs from normal donors (ID 4328, 4379) and AML patients (ID 11SH, 09P6)
# Experimental: Cells were treated with DMSO alone, 200 nM Compound D, or 200 nM Compound E. After 8 or 12 hours, the expression levels of various cellular components along UPR or apoptosis pathways were measured. […] Reduction of BIP indicates UPR.
# To further investigate the timeline of cellular events upon Compound D treatment, KG1 cells were treated with DMSO alone or 200 nM Compound D. At 2, 4, 6, 8, 10, or 12 hours, the expression levels of various cellular components along ATF4 or apoptosis pathways were measured.
# In two sensitive AML cell lines, KG-1 and HL-60, both a concentration-dependent decrease in GSPT1 protein and an increase in RNA expression of ATF3, CHOP, and SRSF3 and SRSF6 NMD transcripts at the 8-hour time point were compared to caspase 3/7 activation (apoptosis) at the 24-hour (FIG. 30A [KG-1]; FIG. 30C [HL-60]) and 48-hour (FIG. 30B [KG-1]; FIG. 30D [HL-60]) time points.
# The reduction in the level of GSPT1 protein was concentration-dependent over the range of 3 to 1000 nM in eight of the nine AML cell lines and over the range of 300 to 1000 nM in one relatively insensitive AML cell line. The time course of the reduction in GSPT1 by Compound D also was studied for up to 48 hours. The progressive degradation of GSPT1 over the course of 1 to 20 hours was evident in the presence of all concentrations of Compound D studied from 3 to 300 nM in HNT-34, HL-60, and ML-2 cells, with little GSPT1 remaining by 20 hours at 100 or 300 nM Compound D in HNT-34 or HL-60 cells (FIG. 34 and FIG. 35C). Time-dependent reduction in GSPT1 was also observed in KG-1 and OCI-AML2 cells at 3 to 1000 nM Compound D, with little GSPT1 remaining in KG-1 cells at 100 to 300 nM at 24 hours or in OCI-AML2 cells at 300 and 1000 nM at 24 hours (FIG. 35D). Loss of GSPT1 occurred more slowly in Kasumi-1, AML-193, and F36-P cells.
# Compound D-mediated GSPT1 reduction at 8 hours was compared to induction of caspase 3/7 activation (apoptosis) at 12, 24, and 48 hour time points in these nine AML cell lines. […] A positive association (r^2=0.50; R=0.71; p value=4.86E-002) was observed between the level of GSPT1 reduction and apoptosis induction in the AML cell panel (FIG. 36), with >90% GSPT1 reduction correlating with induction of apoptosis.
# AML-193 cells = experiment: Apoptosis (caspase 3/7 activation), AML-193; assay type: cell-based, human; details: for EC50: Homo sapiens, read-out: Compound D-induced Apoptosis EC50
# GSPT1 [2] = target: T1, GSPT1; experiment: GSPT1 protein reduction, western analysis, normal PBMCs
# Experimental: PBMC were treated with 1 nM, 10 nM, 100 nM, or 1000 nM of Compound D or Compound E for 20 hours.
# T1 sequence (P15170 1-637 isoform P15170-3): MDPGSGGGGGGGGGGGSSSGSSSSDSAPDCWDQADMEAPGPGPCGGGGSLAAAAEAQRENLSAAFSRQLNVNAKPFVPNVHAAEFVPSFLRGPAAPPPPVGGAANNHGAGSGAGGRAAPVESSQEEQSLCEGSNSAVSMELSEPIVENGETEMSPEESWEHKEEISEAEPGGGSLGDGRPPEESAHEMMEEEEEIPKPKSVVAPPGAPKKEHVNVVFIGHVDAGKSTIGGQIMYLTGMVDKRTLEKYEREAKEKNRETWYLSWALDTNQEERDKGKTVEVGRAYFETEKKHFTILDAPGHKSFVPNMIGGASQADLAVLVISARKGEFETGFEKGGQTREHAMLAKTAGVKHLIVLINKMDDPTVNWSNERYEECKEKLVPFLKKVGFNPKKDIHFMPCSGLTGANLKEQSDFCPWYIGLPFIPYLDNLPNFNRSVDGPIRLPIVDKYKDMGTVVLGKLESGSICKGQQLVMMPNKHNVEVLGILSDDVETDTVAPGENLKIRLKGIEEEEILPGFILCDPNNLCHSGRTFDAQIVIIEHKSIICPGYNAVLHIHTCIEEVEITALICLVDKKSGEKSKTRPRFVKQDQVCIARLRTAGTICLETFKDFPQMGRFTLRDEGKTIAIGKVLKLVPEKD
# T1 sequence (Q96SW2 whole entry): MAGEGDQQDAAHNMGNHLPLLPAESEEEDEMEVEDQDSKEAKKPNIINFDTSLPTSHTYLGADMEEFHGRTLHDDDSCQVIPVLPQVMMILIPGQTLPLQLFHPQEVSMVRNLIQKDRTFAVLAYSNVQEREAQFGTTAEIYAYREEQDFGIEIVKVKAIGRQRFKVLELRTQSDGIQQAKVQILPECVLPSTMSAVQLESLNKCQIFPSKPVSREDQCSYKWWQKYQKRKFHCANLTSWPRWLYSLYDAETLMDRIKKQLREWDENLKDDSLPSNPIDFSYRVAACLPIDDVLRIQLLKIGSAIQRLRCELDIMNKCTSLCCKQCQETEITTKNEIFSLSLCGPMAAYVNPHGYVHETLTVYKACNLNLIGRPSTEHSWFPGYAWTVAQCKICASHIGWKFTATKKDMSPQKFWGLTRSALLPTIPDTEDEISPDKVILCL
# T1 sequence (Q16531 whole entry partner): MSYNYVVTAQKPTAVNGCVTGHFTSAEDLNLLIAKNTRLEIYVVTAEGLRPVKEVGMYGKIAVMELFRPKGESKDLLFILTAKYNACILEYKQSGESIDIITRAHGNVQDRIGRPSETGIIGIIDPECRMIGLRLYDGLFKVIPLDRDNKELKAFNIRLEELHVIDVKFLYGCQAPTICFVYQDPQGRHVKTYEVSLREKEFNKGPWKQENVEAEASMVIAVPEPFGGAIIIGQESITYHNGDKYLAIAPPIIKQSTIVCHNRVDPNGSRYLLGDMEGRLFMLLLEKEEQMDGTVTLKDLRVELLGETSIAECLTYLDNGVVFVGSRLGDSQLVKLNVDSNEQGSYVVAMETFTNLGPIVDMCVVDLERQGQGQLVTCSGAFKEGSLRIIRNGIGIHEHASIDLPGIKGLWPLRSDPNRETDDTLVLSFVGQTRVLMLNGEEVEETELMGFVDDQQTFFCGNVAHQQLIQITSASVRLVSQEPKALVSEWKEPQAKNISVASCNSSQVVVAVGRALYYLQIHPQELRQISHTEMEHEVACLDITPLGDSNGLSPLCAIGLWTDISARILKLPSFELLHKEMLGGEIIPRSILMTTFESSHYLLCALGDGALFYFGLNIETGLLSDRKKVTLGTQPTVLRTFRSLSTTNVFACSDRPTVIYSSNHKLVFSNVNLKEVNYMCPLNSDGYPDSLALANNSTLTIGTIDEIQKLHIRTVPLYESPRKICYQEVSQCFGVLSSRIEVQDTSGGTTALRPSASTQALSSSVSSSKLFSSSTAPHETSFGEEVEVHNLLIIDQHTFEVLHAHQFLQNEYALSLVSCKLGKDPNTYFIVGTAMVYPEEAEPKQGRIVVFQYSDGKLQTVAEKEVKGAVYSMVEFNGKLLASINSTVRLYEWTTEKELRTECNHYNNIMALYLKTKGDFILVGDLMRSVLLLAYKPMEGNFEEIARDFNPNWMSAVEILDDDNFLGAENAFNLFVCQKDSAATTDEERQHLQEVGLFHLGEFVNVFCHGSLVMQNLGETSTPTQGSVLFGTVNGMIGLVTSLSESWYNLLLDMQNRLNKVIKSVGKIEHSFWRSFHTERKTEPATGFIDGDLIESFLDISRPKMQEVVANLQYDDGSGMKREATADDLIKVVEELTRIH
smiles,measurement,setting,value
"O=C1CCC(N2Cc3cc(CNC(=O)C(F)(F)c4ccc(Cl)cc4)ccc3C2=O)C(=O)N1 (stereo not drawn) [Compound D, 2-(4-chlorophenyl)-N-((2-(2,6-dioxopiperidin-3-yl)-1-oxoisoindolin-5-yl)methyl)-2,2-difluoroacetamide]",induction of ATF3 mRNA level,ATF3,approximately 100 fold
same,XBP1 pathway,XBP1,activated the XBP1 pathway
same,time of GSPT1 degradation,"GSPT1 [1]; KG1, 200 nM",≤ 2 h
same,degradation of GSPT1,"GSPT1 [1]; KG1, 200 nM, 8 or 12 hours",induced degradation
same,reduction of GSPT1 protein levels,"GSPT1 [1]; KG-1, 100 nM Compound D, 4 hours",greater than 800
same,reduction of GSPT1 protein levels,"GSPT1 [1]; KG-1, 100 nM or greater, 8-hour time point",> 90%
same,"Average Percent Increase in Apoptosis at 123 nM Compound D, Apoptosis (12 hr)","AML-193 cells; AML-193, 123 nM, 12 hr",0%
same,"Average Percent Increase in Apoptosis at 123 nM Compound D, Apoptosis (24 hr)","AML-193 cells; AML-193, 123 nM, 24 hr",5%
same,"Average Percent Increase in Apoptosis at 123 nM Compound D, Apoptosis (48 hr)","AML-193 cells; AML-193, 123 nM, 48 hr",40%
same,EC50,"AML-193 cells; AML-193, 48 hr",89 nM
same,EC50,"AML-193 cells; AML-193, 72 hr",47 nM
same,EC50,"AML-193 cells; AML-193, 96 hr",60 nM
same,Reduction in GSPT1 Protein Level,"GSPT1 [2]; PBMC sample 4328 (normal), 100 nM Compound D, 8 hours",67%
same,Reduction in GSPT1 Protein Level,"GSPT1 [2]; PBMC sample 4328 (normal), 100 nM Compound D, 22 hours",92%
same,Reduction in GSPT1 Protein Level,"GSPT1 [2]; PBMC sample 4328 (normal), 300 nM Compound D, 8 hours",80%
same,Reduction in GSPT1 Protein Level,"GSPT1 [2]; PBMC sample 4328 (normal), 300 nM Compound D, 22 hours",98%
same,Reduction in GSPT1 Protein Level,"GSPT1 [2]; PBMC sample 4379 (normal), 100 nM Compound D, 8 hours",39%
same,Reduction in GSPT1 Protein Level,"GSPT1 [2]; PBMC sample 4379 (normal), 100 nM Compound D, 22 hours",73%
same,Reduction in GSPT1 Protein Level,"GSPT1 [2]; PBMC sample 4379 (normal), 300 nM Compound D, 8 hours",58%
same,Reduction in GSPT1 Protein Level,"GSPT1 [2]; PBMC sample 4379 (normal), 300 nM Compound D, 22 hours",83%
same,time at which GSPT1 degradation was evident,"GSPT1 [2]; healthy PBMCs, 10 nM Compound D",4 h
